Assay results taken from ChEMBL document CHEMBL1159267, “Barceloneic acid A, a new farnesyl-protein transferase inhibitor from a Phoma species” (J Nat Prod, 1995).
pIC50: −log10 of the molar value. The source made the active and inactive calls. The calls are words filed in the database; no cut-off is given here.

target: T1, Protein farnesyltransferase (Homo sapiens, UniProt P49354+P49356); experiment: Inhibition of human recombinant FPTase by Ras farnesyl-protein-transferase assay; type: protein-complex assay

pIC50 | SMILES
4.40 | COc1cc(O)c(Oc2cc(C)cc(O)c2C(=O)O)c(CO)c1 [BARCELONEIC ACID A]

target: T1, Protein farnesyltransferase; experiment: Inhibition of human recombinant FPTase up to ~300 uM by Ras farnesyl-protein-transferase assay; type: protein-complex assay

Activity | SMILES
inactive | COc1cc(O)c2c(c1)COC(=O)c1c(O)cc(C)cc1O2
inactive | Cc1cc(O)c(C(=O)O)c(O)c1
inactive | COc1cc(CO)c(Oc2cc(C)cc(O)c2C(=O)O)c(OC)c1
inactive | COc1cc(CO)c(Oc2cc(C)cc(OC)c2C(=O)O)c(OC)c1
inactive | COc1cc(O)c(Oc2cc(C)cc(O)c2C(=O)O)c(C(=O)O)c1
inactive | COC(=O)c1c(OC)cc(C)cc1Oc1c(CO)cc(OC)cc1OC
